This note sets out measurements from PMC10458253, “Unraveling the In Vitro Toxicity Profile of Psychedelic 2C Phenethylamines and Their N-Benzylphenethylamine (NBOMe) Analogues” (Pharmaceuticals, 2023).

For data set [1], the system named is differentiated SH-SY5Y cells. As to the kind of experiment: Effect of MAO inhibitors on drug cytotoxicity (neutral red uptake), differentiated SH-SY5Y. The following applies: 24 h; for change of drug cytotoxicity with rasagiline (neutral red uptake): 1 µM rasagiline (MAO-B inhibitor), drug concentrations as given in the source. The format is cell-based. How it is done:
MAO inhibition was used to elucidate the impact of MAO-A and MAO-B in the cytotoxicity of the tested drugs. […] The drugs’ cytotoxicity was then assessed through the neutral red uptake assay and the results were expressed as percentage of control cells. At least four independent experiments were performed, in triplicate.

The next data set concerns HepG2 cells. As to the kind of experiment: Neutral red uptake cytotoxicity assay, HepG2. The format is cell-based. The conditions noted are these: HepG2, 24 h; for Top (maximal effect): maximum cell death of fitted curve; for EC50: Homo sapiens, cell death curves 0–2000 µM, read-out: EC50 (half-maximum-effect concentrations). How it is done:
HepG2 cells were acquired from the American Type Culture Collection (Manassas, VA, USA). Cells were cultured in 75 cm^2 flasks using DMEM—high glucose supplemented with a 10% heat inactivated FBS and 1% penicillin/streptomycin mixture, and maintained in a 5% CO2–95% air atmosphere, at 37 °C, until 80% confluence. Cells were routinely subcultured using trypsin-EDTA and, to avoid phenotypic alterations, used between passages 16 and 22. In all experiments, the cells were seeded at a density of 250,000 cells/cm^2 and used 24 h after seeding.
(§1) Neutral red uptake and resazurin reduction assays were performed after exposure of differentiated SH-SY5Y and HepG2 cells to the drugs under study. To obtain a concentration–response curve, a broad concentration range (0–2000 µM) was investigated, and cytotoxicity was evaluated 24 h after exposure in 96-well cell culture plates. As previously described, neutral red uptake assay is based on the incorporation of neutral red dye into the lysosomes of viable cells and the amount of dye incorporated represents the cells’ lysosomal functionality, and resazurin reduction assay is based on the irreversible reduction of resazurin dye to the fluorescent resorufin product by metabolically active cells.
(§2) Briefly, 24 h after being exposed to different concentrations of the compounds, differentiated SH-SY5Y cells were incubated with either neutral red (50 µg/mL) or resazurin (10 µg/mL) solutions for 90 min, at 37 °C, in a 5% CO2–95% air atmosphere. For HepG2 cells, 24 h after the exposure to the tested drugs, the cells were incubated with either neutral red (50 µg/mL) or resazurin (10 µg/mL) solutions for 45 and 60 min, respectively, at 37 °C, in a 5% CO2–95% air atmosphere.
(§3) In the neutral red uptake assay, at the end of the incubation period, the cell culture medium was removed and a solution of absolute ethyl alcohol/distilled water (1:1) with 5% acetic acid was added to extract the dye absorbed only by the viable cells. The absorbance was measured at 540 nm in a multi-well plate reader (PowerWaveX BioTek Instruments, Winooski, VT, USA). In the resazurin assay, at the end of the incubation period, the fluorescence was measured at 530 nm excitation and 590 nm emission wavelengths in a multi-well plate reader (PowerWaveX BioTek Instruments, Winooski, VT, USA).
(§4) The results were expressed as a percentage of control cells. At least four independent experiments were performed, in triplicate. For differentiated SH-SY5Y cells, the neutral red uptake assay was identified as the most sensitive assay and, therefore, used for the subsequent experiments. On the other hand, for HepG2 cells, the resazurin reduction assay was identified as the most sensitive assay and, therefore, used for the subsequent experiments.

Another data set deals with T1, hMAO-A (Homo sapiens, UniProt P21397).
T1 construct: purchased Sigma Aldrich; host or cells: insect cells (BTI-TN-5B1-4), recombinant baculovirus
T1 sequence (P21397 1-527): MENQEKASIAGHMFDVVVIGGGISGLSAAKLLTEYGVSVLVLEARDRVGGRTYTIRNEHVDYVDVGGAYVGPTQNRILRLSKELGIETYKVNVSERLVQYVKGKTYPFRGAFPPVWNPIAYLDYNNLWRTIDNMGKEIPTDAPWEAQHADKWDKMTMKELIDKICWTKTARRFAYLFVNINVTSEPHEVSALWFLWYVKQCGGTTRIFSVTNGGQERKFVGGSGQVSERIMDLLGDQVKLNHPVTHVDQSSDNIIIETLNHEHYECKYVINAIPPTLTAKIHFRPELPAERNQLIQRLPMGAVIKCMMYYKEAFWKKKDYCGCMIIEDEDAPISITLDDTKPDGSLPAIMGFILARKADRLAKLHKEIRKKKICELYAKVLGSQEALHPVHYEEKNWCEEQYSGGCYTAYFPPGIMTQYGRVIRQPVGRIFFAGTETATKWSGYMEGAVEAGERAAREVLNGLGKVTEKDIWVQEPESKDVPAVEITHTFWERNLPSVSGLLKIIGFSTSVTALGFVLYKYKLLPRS
As to the kind of experiment: hMAO-A inhibitory activity assay (kynuramine). The format is biochemical. The following applies: read-out: % inhibition at 10 µM hMAO-A, kynuramine substrate. The protocol:
The hMAO inhibitory activities were assessed in microsomal MAO isoforms, prepared from insect cells (BTI-TN-5B1-4) infected with recombinant baculovirus containing cDNA inserts for hMAO-A or hMAO-B, by measuring the enzymatic conversion rates of kynuramine into 4-hydroxyquinoline. […] All assays were performed in sodium phosphate buffer solution 50 mM pH 7.4.
The percentages of MAO inhibition of each compound were determined from three independent experiments performed in triplicate.

Data set [2] concerns differentiated SH-SY5Y cells. As to the kind of experiment: Resazurin reduction cytotoxicity assay, differentiated SH-SY5Y. The format is cell-based. The conditions noted are these: 24 h; for Top (maximal effect): maximum cell death of fitted curve; for EC50: Homo sapiens, cell death curves 0–1500 µM, read-out: EC50 (half-maximum-effect concentration). How it is done:
SH-SY5Y cells were acquired from the American Type Culture Collection (Manassas, VA, USA). Cells were cultured in 25 cm^2 flasks using DMEM—high glucose supplemented with 10% heat-inactivated FBS, 1% MEM non-essential amino acids and 1% penicillin/streptomycin mixture, and maintained in a 5% CO2–95% air atmosphere, at 37 °C, until 80% confluence. Cells were routinely subcultured using trypsin-EDTA and, to avoid phenotypic alterations, were always used between passages 23 and 29. In all experiments, the cells were seeded at a density of 25,000 cells/cm^2. As previously described, to achieve a dopaminergic neuronal phenotype, the cells were seeded in a complete DMEM medium containing 10 μM retinoic acid and, after 3 days, 80 nM TPA was added to the cultures for another 3 days.
as §1, §2, §3, §4
(In general: Alamar Blue is a resazurin reagent that responds to reducing activity.)

Where [3] appears, read: 1 µM clorgyline (MAO-A inhibitor), drug 50-250 µM.

Broadly, the inhibition is the change of the read-out against control, counted positive when it falls. In the case of `COc1ccccc1CNCCc1cc(OC)c(OC)c(OC)c1` [Mescaline-NBOMe, 3,4,5-Trimethoxy-N-(2-methoxybenzyl)-β-phenethylamine], the “change of drug cytotoxicity with clorgyline (neutral red uptake)” value in data set [1] (setting [3]) is given as “significantly increased the cytotoxicity”. Further, the “change of drug cytotoxicity with clorgyline (neutral red uptake)” value in data set [1] (1 µM clorgyline, 500 µM drug concentration) is on record as “significant increase in cell viability”. In addition, in data set [1], the “change of drug cytotoxicity with rasagiline (neutral red uptake)” value is given as “significantly increased the cytotoxicity”. In addition, in the data set with HepG2 cells, the “Bottom (baseline)” value stood at 2.853, the “Hill Slope” value worked out at 3.666, the “Top (maximal effect)” value is 98.25 and the EC50 worked out at 476 µM. At hMAO-A, the inhibition at 10 µM was determined as 3.9%. Further, in data set [2], the “Bottom (baseline)” value worked out at 2.774, the “Hill Slope” value is given as 2.524, the “Top (maximal effect)” value was determined as 94.72 and the EC50 turned out to be 677 µM.
For the compound `COc1cc(CCN)c(OC)cc1Br` [2C-B, 4-Bromo-2,5-dimethoxy-β-phenethylamine], in data set [1], the “change of drug cytotoxicity with rasagiline (neutral red uptake)” value was “significantly increased the cytotoxicity”. Also, in the data set on HepG2 cells, the “Bottom (baseline)” value is 5.433, the “Hill Slope” value was found to be 5.413, the “Top (maximal effect)” value was determined as 95.01 and the EC50 was 257 µM. The inhibition at 10 µM at hMAO-A is 17.5%. Moreover, in data set [2], the “Bottom (baseline)” value is given as 7.210, the “Hill Slope” value was determined as 1.670, the “Top (maximal effect)” value is listed as 83.95 and the EC50 was determined as 225 µM.
Regarding `COc1cc(CCNCc2ccccc2OC)c(OC)cc1Br` [25B-NBOMe, 4-Bromo-2,5-dimethoxy-N-(2-methoxybenzyl)-β-phenethylamine], the “change of drug cytotoxicity with rasagiline (neutral red uptake)” value in data set [1] is given as “significant increase in cell viability”. Besides, in the data set on HepG2 cells, the “Bottom (baseline)” value was found to be 4.279, the “Hill Slope” value turned out to be 2.442, the “Top (maximal effect)” value was “≈100” and the EC50 came to 34.7 µM. Moreover, on hMAO-A, the inhibition at 10 µM turned out to be 15%. For the same compound, in data set [2], the “Bottom (baseline)” value was 6.827, the “Hill Slope” value came to 4.464, the “Top (maximal effect)” value came out at 80.62 and the EC50 came out at 58.4 µM.
`COc1cc(CCN)cc(OC)c1OC.Cl` [Mescaline, 3,4,5-Trimethoxyphenethylamine hydrochloride]: the “change of drug cytotoxicity with clorgyline (neutral red uptake)” value in data set [1] (setting [3]) is recorded as “significantly increased the cytotoxicity”. The “cytotoxicity (in words)” value in the data set on HepG2 cells (0–2000 µM) is reported as “not causing a significant cytotoxicity”. Moreover, on hMAO-A, the inhibition at 10 µM is 2.5%. Also, in data set [2] (0–1500 µM), the “cytotoxic effect (in words)” value is “no significant cytotoxic effects”.
`COc1cc([N+](=O)[O-])c(OC)cc1CCNCc1ccccc1OC` [25N-NBOMe, 4-Nitro-2-dimethoxy-N-(2-methoxybenzyl)-β-phenethylamine]: the “change of drug cytotoxicity with clorgyline (neutral red uptake)” value in data set [1] (setting [3]) is “significantly increased the cytotoxicity”. Further, the “change of drug cytotoxicity with rasagiline (neutral red uptake)” value in data set [1] is reported as “significant increase in cell viability”. For the same compound, in the data set with HepG2 cells, the “Bottom (baseline)” value came out at 7.254, the “Hill Slope” value worked out at 6.518, the “Top (maximal effect)” value was 94.13 and the EC50 was determined as 115 µM. In addition, the inhibition at 10 µM on hMAO-A amounted to 8.9%. Moreover, in data set [2], the “Bottom (baseline)” value stood at 0.9223, the “Hill Slope” value is listed as 4.692, the “Top (maximal effect)” value amounted to 80.10 and the EC50 turned out to be 154 µM.
With `COc1cc([N+](=O)[O-])c(OC)cc1CCN` [2C-N, 2,5-dimethoxy-4-nitrophenethylamine], the “change of drug cytotoxicity with rasagiline (neutral red uptake)” value in data set [1] was “significantly increased the cytotoxicity”. For the same compound, in the data set on HepG2 cells, the “Bottom (baseline)” value worked out at 7.328, the “Hill Slope” value was 4.340, the “Top (maximal effect)” value was “≈100” and the EC50 came to 960 µM. In addition, the inhibition at 10 µM on hMAO-A was 5.8%. Also, in data set [2], the “Bottom (baseline)” value is on record as 4.440, the “Hill Slope” value amounted to 1.627, the “Top (maximal effect)” value is on record as “≈100” and the EC50 is 832 µM.
